Read-outs that look alike come from different tables or passages of the source.
Tests used:
T47D breast cancer cells = experiment: Anti-proliferation assay in T47D cell (Cyquant, day 6); format: cell-based, human; details: anti-proliferation, T47D cells, read-out: T47D IC50
From the text: T47D is a human breast cancer cell line commonly used in biomedical research involving the hormonal expression of cancer cells. T47D cells are distinct from other human breast cancer cells in that their progesterone receptors (PR) are not regulated by estradiol, a hormone that is abundant within the cells themselves. T47D cells have been employed in studies of the effects of progesterone on breast cancer and the corresponding transcriptional regulation caused by introduced drugs. The cells have been noted to be extremely resistant to estrogens and antiestrogens.
T47D breast cancer cells from American Type Culture Collection (ATCC, HTB-133) were plated at 3000 cells/well in 96-well plates, and were incubated in RPMI 1640 medium (Gibco, 31800105) with 10% Fetal Bovine Serum (FBS, Biowest, FB-1058) at 37° C., 5% CO2. After overnight incubation, baseline values were measured of the samples from one plate using Cyquant reagent (Invitrogen, C35011) following manufacturer's recommendations. Cells were incubated with the detection reagent for 1 hour at 37° C., and then the fluorescence was measured with excitation at 485 nm and emission at 535 nm using Spectra Max M5 (Molecular Devices, HD-4HYSG3196). Other plates were dosed with compounds at a ten-point dose concentration from 10 μM to 0.51 nM in a 3-fold dilution scheme. On day 6 after compound addition, Cyquant reagent was added and the fluorescence was measured using Spectra Max M5. The IC50 values of the test compound's anti-proliferation activity were determined from the baseline subtracted viability readout curve using Xlfit5/GraphPad Prism 5 software.

CDK4/CyclinD1 = target: T1, CDK4/CyclinD1 (Homo sapiens, UniProt P11802); experiment: Assay for inhibition of CDK4/CyclinD1 (Caliper microfluidic kinase assay); format: biochemical
T1 construct: purchased Thermofisher PR8064A
T1 sequence (P11802 whole entry): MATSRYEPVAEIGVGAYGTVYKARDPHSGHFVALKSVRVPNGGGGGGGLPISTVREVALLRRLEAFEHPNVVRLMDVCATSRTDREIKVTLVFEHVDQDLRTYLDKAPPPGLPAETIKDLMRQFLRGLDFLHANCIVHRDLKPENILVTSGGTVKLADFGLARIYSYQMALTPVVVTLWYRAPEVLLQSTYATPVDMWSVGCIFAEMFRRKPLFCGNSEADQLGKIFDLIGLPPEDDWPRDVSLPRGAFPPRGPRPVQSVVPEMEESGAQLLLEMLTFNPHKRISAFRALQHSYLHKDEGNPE
T1 sequence (P24385 whole entry partner): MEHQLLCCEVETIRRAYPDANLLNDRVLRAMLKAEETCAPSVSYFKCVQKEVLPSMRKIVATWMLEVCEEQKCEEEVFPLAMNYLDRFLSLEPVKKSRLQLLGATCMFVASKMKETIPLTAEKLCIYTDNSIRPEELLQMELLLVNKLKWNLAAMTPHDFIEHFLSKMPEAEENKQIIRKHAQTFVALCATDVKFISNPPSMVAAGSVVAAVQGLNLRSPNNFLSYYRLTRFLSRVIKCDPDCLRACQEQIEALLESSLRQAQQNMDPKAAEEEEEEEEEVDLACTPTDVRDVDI
Protocol: The CDK4 enzyme assay for IC50 determination was performed as follows. Microfluidic kinase detection technology (Caliper) was used to monitor the phosphorylation of peptide substrate by CDK4/CyclinD1. The total reaction volume was 15 μL containing buffer A (100 mM HEPES (pH 7.5), 0.1% BSA, 0.01% Triton X-100, 1 mM DTT, 10 mM MgCl2, 10 μM Sodium Orthovanadate, 10 μM Beta-Glycerophosphate), 200 μM ATP, 1 nM CDK4/CyclinD1 (Thermofisher, PR8064A), 1 μM FL-34 (5-FAM-[…]), and the test compound at appropriate dilutions in DMSO. All components were added to the 384-well plate (Corning, 4514), and incubated at Room Temperature for 3 hours. The reaction was terminated by addition of 15 μL Stop Buffer (180 mM HEPES (pH 7.5), 20 mM EDTA, Coating-3 reagent (PerkinElmer, 760050)). The plate was then loaded on Caliper EZ Reader (EZ Reader II, PerkinElmer, HD-4HYSG2772), and the reaction mixtures including substrate and product were sipped into the microfluidic chip for separation and detection. The IC50 values of the test compound were determined by fitting the inhibition curves by 4 parameter sigmoidal dose-response model using the Xlfit5/GraphPad Prism 5 software.

CDK2/CyclinE1 = target: T2, CDK2/CyclinE1 (Homo sapiens, UniProt P24941); experiment: Assay for inhibition of CDK2/CyclinE1 (Caliper microfluidic kinase assay); format: biochemical; details: read-out: CDK2 IC50
T2 construct: purchased SignalChem C29-18G
Protocol: The CDK2 enzyme assay for IC50 determination was performed as follows. Microfluidic kinase detection technology (Caliper) was used to monitor the phosphorylation of peptide substrate by CDK2/CyclinE1. The total reaction volume was 15 μL containing buffer A (100 mM HEPES (pH 7.5), 0.1% BSA, 0.01% Triton X-100, 1 mM DTT, 10 mM MgCl2, 10 μM Sodium Orthovanadate, 10 μM Beta-Glycerophosphate), 100 μM ATP, 5 nM CDK2/CyclinE1 (SignalChem, C29-18G), 5 μM FL-18 (5-FAM-QSPKKG-NH2), and the test compound at appropriate dilutions in DMSO. All components were added to the 384-well plate (Corning, 4514), and incubate at Room Temperature for 3 hours. The reaction was terminated by addition of 15 μL Stop Buffer (180 mM HEPES (pH 7.5), 20 mM EDTA, Coating-3 reagent (PerkinElmer, 760050)). The plate was loaded on Caliper EZ Reader (EZ Reader II, PerkinElmer, HD-4HYSG2772), and the reaction mixtures including substrate and product were sipped into the microfluidic chip for separation and detection. The IC50 values of the test compound were determined by fitting the inhibition curves by 4 parameter sigmoidal dose-response model using the Xlfit5/GraphPad Prism 5 software.

Compound	IC50 (T47D breast cancer cells) [nM]	IC50 (CDK4/CyclinD1; CDK4/CyclinD1, 200 μM ATP) [nM]	IC50 (CDK2/CyclinE1; CDK2/CyclinE1, 100 μM ATP) [nM]	IC50 (T47D breast cancer cells; Homo sapiens, T47D) [nM]	IC50 (CDK4/CyclinD1; CDK4/CyclinD1) [nM]	IC50 (CDK2/CyclinE1; CDK2/CyclinE1) [nM]
CNC1CCN(c2ccc(Nc3nccc(-c4ccn5ncc(C(C)C)c5c4)n3)nc2)C(=O)C1 (single isomer, unassigned) [Synthetic Example 206, 1-[6-[[4-(3-isopropylpyrazolo[1,5-a]pyridin-5-yl)pyrimidin-2-yl]amino]-3-pyridyl]-4-(methylamino)piperidin-2-one]	< 100	< 10	< 10	–	–	–
Cc1nc2c(F)nc(-c3ccnc(Nc4ccc(N5CCCC(N(C)C)C5=O)cn4)n3)cc2n1C(C)C (single isomer, unassigned) [Synthetic Example 302, 3-(dimethylamino)-1-[6-[[4-(4-fluoro-1-isopropyl-2-methyl-imidazo[4,5-c]pyridin-6-yl)pyrimidin-2-yl]amino]-3-pyridyl]piperidin-2-one]	–	< 10	> 1000	< 100	–	–
Cc1nc2c(F)nc(-c3ccnc(Nc4ccc(N5CCCC(N(C)C)C5=O)cn4)n3)cc2n1C(C)C (single isomer, unassigned) [Synthetic Example 303, 3-(dimethylamino)-1-[6-[[4-(4-fluoro-1-isopropyl-2-methyl-imidazo[4,5-c]pyridin-6-yl)pyrimidin-2-yl]amino]-3-pyridyl]piperidin-2-one]	< 100	< 10	> 1000	–	–	–
CC(C)c1cnn2ccc(-c3nc(Nc4ccc(N5CCN(C6CC6)CCC5=O)cn4)ncc3F)cc12 [Synthetic Example 49]	–	< 10	100 to 1000	100 to 500	–	–
CC(C)c1cnn2ccc(-c3nc(Nc4ccc(S(C)(=O)=O)cc4)ncc3F)cc12 [compound 6]	–	100 to 1000	10 to 100	500 to 1000	–	–
O=C1COCCN1c1ccc(Nc2ncc(F)c(-c3ccn4ncc(C5CCCC5)c4c3)n2)nc1 [compound 12]	–	10 to 100	100 to 1000	500 to 1000	–	–
CCN1CC(=O)N(c2ccc(Nc3ncc(F)c(-c4ccn5ncc(C(C)C)c5c4)n3)nc2)CC1=O [compound 14]	–	10 to 100	10 to 100	< 100	–	–
CC(C)c1cnn2ccc(-c3ccnc(Nc4ccc(C(=O)N5CCC(NC6CC6)C5)cc4)n3)cc12 (stereo not drawn) [compound 21]	< 100	< 10	< 10	–	–	–
CC(C)c1cnn2ccc(-c3nc(Nc4ccc(N5CCN(CCF)CCC5=O)cn4)ncc3F)cc12 [compound 54]	–	< 10	10 to 100	100 to 500	–	–
CC(C)n1cnc2c(OC(F)F)nc(-c3ccnc(Nc4ccc(N5CCC(N(C)C)CC5=O)cn4)n3)cc21 (stereo not drawn) [compound 64]	–	–	–	100 to 500	< 10	> 1000
CCN1CCC(Cn2ccc(Nc3nccc(-c4cc5c(ncn5C(C)C)c(OC)n4)n3)n2)CC1 [compound 135]	–	10 to 100	> 1000	100 to 500	–	–
CC(C)c1cnn2ccc(-c3ccnc(Nc4ccc(N5CCC(N(C)C)C5=O)cc4)n3)cc12 (stereo not drawn) [compound 144]	–	< 10	< 10	< 100	–	–
CC(C)c1cnn2ccc(-c3ccnc(Nc4ccc(N5CCC(N(C)CCF)CC5=O)cn4)n3)cc12 (stereo not drawn) [compound 170]	–	< 10	10 to 100	< 100	–	–
CC(C)c1cnn2ccc(-c3ccnc(Nc4ccc(N5CCCC(N(C)C)C5=O)cc4)n3)cc12 (stereo not drawn) [compound 174]	–	< 10	100 to 1000	100 to 500	–	–
Cc1nn2ccc(-c3ccnc(Nc4ccc(N5CCCC(N(C)C)C5=O)cc4)n3)cc2c1C(C)C (stereo not drawn) [compound 178]	–	< 10	100 to 1000	< 100	–	–
CNC1CCCN(c2ccc(Nc3nccc(-c4ccn5ncc(C(C)C)c5c4)n3)cn2)C1=O (stereo not drawn) [compound 185]	–	< 10	10 to 100	< 100	–	–
CC(C)c1cnn2ccc(-c3ccnc(Nc4ccc(N5CCNCC5=O)cc4O)n3)cc12 [compound 188]	–	10 to 100	10 to 100	–	–	–
CNC1CN(C(=O)c2ccc(Nc3nccc(-c4ccn5ncc(C(C)C)c5c4)n3)cc2)C1 [compound 190]	–	< 10	10 to 100	–	–	–
CC(C)c1cnn2ccc(-c3ccnc(Nc4ccc(N5CCC(C)(N)CC5=O)cc4Cl)n3)cc12 (stereo not drawn) [compound 212]	–	< 10	< 10	–	–	–

Compound	IC50 (T47D breast cancer cells) [nM]	IC50 (CDK4/CyclinD1; CDK4/CyclinD1, 200 μM ATP) [nM]	IC50 (CDK2/CyclinE1; CDK2/CyclinE1, 100 μM ATP) [nM]	IC50 (T47D breast cancer cells; Homo sapiens, T47D) [nM]	IC50 (CDK4/CyclinD1; CDK4/CyclinD1) [nM]	IC50 (CDK2/CyclinE1; CDK2/CyclinE1) [nM]
COc1cc(N2CCCC(N)C2=O)ccc1Nc1nccc(-c2ccn3ncc(C(C)C)c3c2)n1 (stereo not drawn) [compound 222]	–	10 to 100	10 to 100	–	–	–
CC(C)c1cnn2ccc(-c3ccnc(Nc4ccc(N5CCCC(N)C5=O)cc4F)n3)cc12 (stereo not drawn) [compound 223]	–	< 10	10 to 100	–	–	–
CC(C)c1cnn2ccc(-c3ccnc(Nc4ccc(N5CCNCC5=O)c(F)c4)n3)cc12 [compound 228]	–	< 10	< 10	–	–	–
CC(C)c1cnn2ccc(-c3ccnc(Nc4ccc(N5CCNCC5=O)c(F)c4F)n3)cc12 [compound 229]	–	< 10	< 10	–	–	–
CCNC1CCN(c2ccc(Nc3nccc(-c4ccn5ncc(C(C)C)c5c4)n3)c(F)c2)C(=O)C1 (stereo not drawn) [compound 230]	–	< 10	< 10	–	–	–
CNC1CCCN(c2ccc(Nc3nccc(-c4ccn5ncc(C(C)C)c5c4)n3)c(F)c2)C1=O (stereo not drawn) [compound 231]	–	< 10	10 to 100	–	–	–
CC(C)(C)c1cnn2ccc(-c3ccnc(Nc4ccc(N5CCCC(N)C5=O)cc4F)n3)cc12 (stereo not drawn) [compound 232]	–	< 10	< 10	–	–	–
CC(C)c1cnn2ccc(-c3ccnc(Nc4ccc(N5CCC(NCCF)CC5=O)cc4)n3)cc12 (stereo not drawn) [compound 233]	–	< 10	< 10	–	–	–
CCN1CCN(Cc2ccc(Nc3ncc(F)c(N4CCc5ncn(C(C)C)c5C4)n3)nc2)CC1 [compound 251]	–	10 to 100	> 1000	–	–	–
CC(C)n1cnc2c1CN(c1nc(Nc3ccc(S(N)(=O)=O)nc3)ncc1F)CC2 [compound 254]	–	10 to 100	< 10	–	–	–
CC(C)n1cnc2c1CN(c1nc(Nc3ccc4c(c3)CS(=O)(=O)C4)ncc1F)CC2 [compound 255]	–	< 10	< 10	–	–	–
CC(C)n1cnc2c1CN(c1nc(Nc3ccc(N4CCNCC4=O)cc3F)ncc1F)CC2 [compound 256]	–	< 10	< 10	–	–	–
CC1(C)COc2c(F)cc(-c3ccnc(Nc4ccc(N5CCCC(N)C5=O)nc4)n3)cc21 (stereo not drawn) [compound 264]	–	< 10	10 to 100	–	–	–
CCN1CCN(c2ccc(Nc3nccc(-c4cc5c(ncn5C(C)C)c(F)n4)n3)nc2)C(=O)C1 [compound 274]	–	< 10	100 to 1000	–	–	–
CC(C)n1cnc2c(F)nc(-c3ccnc(Nc4ccc(N5CCC(C)(N)CC5=O)cc4Cl)n3)cc21 (stereo not drawn) [compound 291]	–	< 10	< 10	–	–	–
COc1cc(N2CCC(N(C)C)CC2=O)ccc1Nc1nccc(-c2cc3c(ncn3C(C)C)c(F)n2)n1 (stereo not drawn) [compound 296]	–	< 10	< 10	–	–	–
CC(C)n1cnc2c(F)nc(-c3ccnc(Nc4ccc(N5CCC(N(C)C)CC5=O)cc4F)n3)cc21 (stereo not drawn) [compound 305]	–	< 10	< 10	–	–	–
CC(C)n1cnc2c(F)nc(-c3ccnc(NC4CCN(S(C)(=O)=O)CC4)n3)cc21 [compound 310]	–	10 to 100	10 to 100	–	–	–
